Test results as given in the NIST ThermoML archive (doi:10.1021/je300941v).

Experiment: xn = mol fraction of the nth substance listed
Conditions: 101 kPa, Liquid, Vibrating tube method

CCCC[N+]1(C)CCCC1.O=S(=O)([N-]S(=O)(=O)C(F)(F)F)C(F)(F)F + CNC=O
mass density [kg/m3]
Conditions	293.15 K	298.15 K	303.15 K	308.15 K	313.15 K	318.15 K	323.15 K
x1 = 0.0246	1055.01	1050.43	1045.86	1041.32	1036.71	1032	1027.24
x1 = 0.0444	1087.36	1082.72	1078.08	1073.48	1068.79	1064.04	1059.25
x1 = 0.0743	1124.18	1119.6	1114.93	1110.11	1105.37	1100.74	1095.89
x1 = 0.1571	1192.03	1187.22	1182.56	1177.83	1173.12	1168.24	1163.34
x1 = 0.2195	1227.49	1222.75	1218	1213.28	1208.51	1203.7	1198.78
x1 = 0.2768	1253.4	1248.66	1243.85	1239.09	1234.35	1229.57	1224.76
x1 = 0.3721	1288.07	1283.27	1278.56	1273.79	1269.04	1264.27	1259.52
x1 = 0.4755	1318.98	1314.25	1309.5	1304.78	1300.03	1295.32	1290.63
x1 = 0.588	1344.35	1339.65	1334.96	1330.34	1325.69	1320.95	1316.2
x1 = 0.631	1352.66	1347.99	1343.33	1338.74	1334.09	1329.42	1324.65
x1 = 0.7045	1364.77	1360	1355.4	1350.82	1346.19	1341.54	1336.77
x1 = 0.7807	1375.58	1370.92	1366.37	1361.76	1357.23	1352.53	1347.89
x1 = 0.9067	1390.15	1385.5	1380.94	1376.4	1371.81	1367.24	1362.53
